Test results reported in patent US20080242870A1 (priority 2006, published 2008).
Several values for one entry are separate records, joined by “and”; a condition that tells them apart may be missing. Identical values can stand only once.

Legend:
Assay type in all cases: physicochemical
[1] = Emission spectra of anthracene diimides at room temperature (Example 1); conditions: for Em. λmax: (p) peak, (s) shoulder
Method: (§1) Unless otherwise stated, all experiments used optically dilute solutions (Optical Density (OD)<0.2) at room temperature. […] Emission spectra were obtained with an Aminco-Bowman luminescence spectrometer (Series 2). The excitation was accomplished with a 150 W Xe lamp optically coupled to a monochrometer (+2 nm). The emission was collected at […] and passed through a second monochrometer (±2 nm). Luminescence was measured with a photomultiplier tube (PMT).

[2] = Radiative quantum yield against standards (Example 1)
Method: as §1

[3] = Luminescence lifetime by TCSPC (Example 1); conditions: TCSPC 370 nm pulsed LED
Method: Luminescence lifetimes were measured with an IBH time-correlated single photon counting (TCSPC) system equipped with an IBH Model TBX-04 Photon Detection Module. The excitation source for the TCSPC measurements was a pulsed LED (IBH NanoLED, 455 nm, 1.3 ns pulse duration or 403 nm, <200 ps pulse duration) with a repetition rate of 1 MHz. All data was analyzed by iterative reconvolution of the decay profile (10,000 counts at the peak channel) with the instrument response function using software provided by the instrument manufacturer.

[4] = Absorption spectra of anthracene diimides in solvents of increasing polarity (Example 1)
[5] = Sub-ambient (77 K) emission in 2-methyltetrahydrofuran; conditions: 2-methyltetrahydrofuran, 405 nm excitation, listed as DPO (35)
Method: FIGS. 7a and 7b show normalized emission spectra for the diphenyl anthracene diimides (top) and the tetraphenyl anthracene diimides (bottom) at 77° K in 2-methyltetrahydrofuran and 405 nm excitation.
In an attempt to better understand the excited state properties of the diphenyl and tetraphenyl anthracene diimides, sub-ambient (77 K) emission experiments were performed, with the results shown in FIGS. 7a and 7b. In the case of the diphenyl derivatives, DPO (35), DP (37), and DC (39) display similar emission spectra with overlapping bands near 434 nm, […], and 492 nm. Although the peak ratios differ slightly, the band shapes and positions are nearly identical. […] Similar results are observed for the tetraphenyl series. Here, TPO (40) and TP (41) display spectral features analogous to DPO (35), DP (37), and DC (39), but at lower energy.

Compound	Em. λmax ([1]; ACN (38.8))	Em. λmax ([1]; Acetone (20.1))	Em. λmax ([1]; C2H4Cl2 (10.7))	Em. λmax ([1]; CHCl3 (4.8))	Em. λmax ([1]; Ethyl Acetate (6.02))	Em. λmax ([1]; THF (7.6))	Em. λmax ([1]; Toluene (2.4))	Φr ([2]; ACN (38.8))	Φr ([2]; Acetone (20.1))	Φr ([2]; C2H4Cl2 (10.7))	Φr ([2]; CHCl3 (4.8))	Φr ([2]; Ethyl Acetate (6.02))	Φr ([2]; THF (7.6))	Φr ([2]; Toluene (2.4))	1τ ([3]; Toluene (2.4))	Abs. λmax ([4]; ACN (38.8))	Abs. λmax ([4]; Acetone (20.1))	Abs. λmax ([4]; C2H4Cl2 (10.7))	Abs. λmax ([4]; CHCl3 (4.8))	Abs. λmax ([4]; Ethyl Acetate (6.02))	further results
CCCCCCCCn1c(=O)c2c(-c3ccccc3)c3cc4c(-c5ccccc5)c5c(=O)n(CCCCCCCC)c(=O)c5c(-c5ccccc5)c4cc3c(-c3ccccc3)c2c1=O [TPO]	443(p) nm and 468(p) nm	443(p) nm and 466(p) nm	445(p) nm and 470(p) nm	447(p) nm and 471(p) nm	442(p) nm and 465(p) nm	445(p) nm and 467(p) nm	447(p) nm and 468(p) nm	0.24	0.21	0.23	0.26	0.21	0.20	0.19	2.77 ns	428 nm	427 nm	430 nm	432 nm	426 nm	emission band position ([1]; room temperature, all solvents): ~428 nm; 1τ ([3]; ACN (38.8)): 3.84 ns; 1τ ([3]; Acetone (20.1)): 3.34 ns; 1τ ([3]; C2H4Cl2 (10.7)): 3.19 ns; 1τ ([3]; CHCl3 (4.8)): 3.54 ns; 1τ ([3]; Ethyl Acetate (6.02)): 3.12 ns; 1τ ([3]; THF (7.6)): 3.03 ns; Abs. λmax ([4]; THF (7.6)): 427 nm; Abs. λmax ([4]; Toluene (2.4)): 428 nm
CCCCCCCCn1c(=O)c2cc3cc4c(-c5ccccc5)c5c(=O)n(CCCCCCCC)c(=O)c5cc4cc3c(-c3ccccc3)c2c1=O [DPO]	435(p) nm	435(p) nm	436(p) nm	437(p) nm	433(p) nm	435(p) nm	437(p) nm	0.46	0.37	0.46	0.36	0.34	0.37	0.35	6.36 ns	423 nm	421 nm	424 nm	426 nm	420 nm	emission bands [5]: ~434 nm and ~461 nm and ~492 nm; 1τ ([3]; ACN (38.8)): 8.03 ns; 1τ ([3]; Acetone (20.1)): 7.29 ns; 1τ ([3]; C2H4Cl2 (10.7)): 5.60 ns; 1τ ([3]; CHCl3 (4.8)): 5.79 ns; 1τ ([3]; Ethyl Acetate (6.02)): 6.90 ns; 1τ ([3]; THF (7.6)): 6.71 ns; Abs. λmax ([4]; THF (7.6)): 421 nm; Abs. λmax ([4]; Toluene (2.4)): 422 nm
CCCCCCOc1ccc(-n2c(=O)c3c(-c4ccccc4)c4cc5c(-c6ccccc6)c6c(=O)n(-c7ccc(OCCCCCC)cc7)c(=O)c6c(-c6ccccc6)c5cc4c(-c4ccccc4)c3c2=O)cc1 [TP]	456(p) nm and 474(s) nm and 585(p) nm	454(p) nm and 576(p) nm	450(p) nm and 478(p) nm and 497(p) nm and 549(p) nm	450(p) nm and 482(p) nm and 564(p) nm	448(s) nm and 499(s) nm and 549(p) nm	459(s) nm and 499(s) nm and 552(p) nm	482(p) nm and 520(s) nm	0.0080	0.011	0.029	0.08	0.023	0.027	0.21	1.03 ns	431 nm	429 nm	435 nm	435 nm	428 nm	Em. λmax ([1]; Toluene (2.4), listed as TP (41)): ~431 nm; Abs. λmax ([4]; THF (7.6)): 429 nm; Abs. λmax ([4]; Toluene (2.4)): 431 nm
